Assay results taken from patent US20080207544A1, “Compositions And Methods For Delivery Of Agents Into Cells” (priority 2005, published 2008).

Legend:
[1] = tested on: RG2 cells; assay: Luciferase gene transfer activity of modified lipoplexes in RG2 cells; assay type: cell-based, rat; settings: 48 hours, 1 μg per well
Protocol: FIG. 12. In vitro gene transfer activity of lipoplexes modified with different lipids. Complexes with DOPE-MPB-Cys, DOPE or CXCR4-lipopeptide were incubated with RG2 cells (1 μg pLC0888/well). Each point is an average of three wells ±SD.
Preparation of lipoplexes. The lipid-based transfection-reagent (Genzyme lipid 89:Lym-X-Sorb:Vitamin E 10:89:1) was prepared aseptically by mixing 8 μl of Genzyme lipid 89 (25 mg/ml in chloroform or 0.038 μmoles/μl) (Genzyme, Cambridge, Mass.); 7.5 μl Lym-X-Sorb (138 mg/ml in chloroform or 0.365 μmoles/μl) (Avanti Polar Lipids, Birmingham, Ala.) and 2.2 μl Vitamin E (5.905 mg/ml or 0.0137 μmoles/μl) (Sigma, St Louis, Mo.) in a clean reagent-tube. Once the lipids were thoroughly mixed the solvent was evaporated using argon. Residual solvent was removed by placing the vial under a vacuum in the desiccator for 30 mins. The dried lipid-film was hydrated with 3 ml of HEPES Buffered Saline (HBS; 7.5 mM HEPES, 150 mM NaCl). After hydration the transfection-mixture was bath-sonicated for 5 minutes. […]
Luciferase-Assay. […] 150 μl of lysisbuffer (0.1 M potassium phosphate buffer; 1% Tx-100; 1 mM DTT; 2 mM EDTA; pH=7.8) (Sigma, St. Louis, Mo.) was added to each well and the plate was stored at −80° C. for 10 minutes or until ready to be assayed. […]

[2] = tested on: B16 melanoma cells; assay: Luciferase transfection of B16 cells with FGF receptor targeted lipoplexes; assay type: cell-based; settings: same experimental conditions as RG2
Protocol: FIG. 13. Transfection of B16 cells by implementation of FGF receptor targeted lipoplexes. Transfection With CXCR4-ligand targeted lipoplexes leads to increased transfection-efficiency in vitro. Whether increased specific binding to cells expressing the targeted receptor leads to increased transfection-efficiency in vitro is tested by transfecting cells with targeted and untargeted lipoplexes expressing the reporter-enzyme luciferase. Many tumor cell-lines express CXCR4, including the RG2 cell-line (as confirmed by flow cytometry; data not shown). These cells are efficiently transfected with lipoplexes prepared as described in the materials and methods section. Transfection of cells with untargeted lipoplexes coding for GFP at a dose of 1 μg DNA per 50,000 cells typically leads to a 30-40% transfection-efficiency after 48 hours (data not shown). However, whenever the lipid-composition of the optimized formulation was changed by titrating in cysteine-modified DOPE-MPB (DOPE-MPB-Cys) or DOPE instead of Lym-X-Sorb (i.e. modification of helper-lipids); the transfection-efficiency decreased steadily. Even at low concentrations of DOPE-MPB-Cys and DOPE (1 molepercent) transfection-efficiency as measured by luciferase-expression after 48 hours (1 μg per well) was decreased by about 30% (100% being 4*10^4 RLU equivalent to 35 ng recombinant luciferase per well). […]

SMILES: CCCCCCCC/C=C\CCCCCCCC(=O)OC[C@H](COP(=O)(O)OCCN)OC(=O)CCCCCCC/C=C\CCCCCCCC [DOPE]
- decrease of transfection-efficiency as measured by luciferase-expression ([1]; 1 molepercent modification-lipid instead of Lym-X-Sorb): about 30%
- transfection-efficiency (luciferase) ([1]; 20 molepercent modification-lipid): 3.9±1.1 % of control
- luciferase expression / transfection efficiency as a function of mol % of modifier lipid [2]: decreased luciferase expression
